In one test the test system is THP-1 (AML) cells. Kind of test: LSD1 CD11b cellular assay (flow cytometry). In kind it is cell-based. The following applies: Homo sapiens, THP-1, 96 h; CD11b expressing cells, 4 days; read-out: THP-1 IC50.
The test system of the next test is Kasumi-1. Briefly: Kasumi-1 AML cell line proliferation assay (Cell-MTS assay). In kind it is cell-based. To be noted: Homo sapiens, 168 hours. The text has this: Colorimetric cellular assay to assess the ability of LSD-1 small molecule inhibitors to effect the proliferation of the established AML cancer cell line Kasumi-1.
This Cell-MTS assay is a 7-day plate based colorimetric assay which quantifies the amount of newly generated NADH in the presence and absence of test compound. These NADH levels are used as a proxy for the quantification of cancer cell proliferation.
The established cancer cell line Kasumi-1 with a verified p53 mutation were purchased from American Type Culture Collection (ATCC) and routinely passaged according to ATCC published protocols. For routine assay these cells were seeded at a density of 20,000 cells per 96-well. […] At the end of this compound incubation period, 80 μl of media is removed and 20 μL of CellTiter 96® AQueous Non-Radioactive Cell Proliferation Assay solution (Promega) is added. The cells are incubated until the OD490 is >0.6. IC50 values are calculated using the IDBS XLfit software package and include background subtracted OD490 values and normalization to DMSO controls.

For the compound `COc1ccc(-c2c(-c3ccc(C#N)cc3)nc(N3CCC(N)CC3)n(C)c2=O)cn1` [Example 3, 4-[2-(4-amino-piperidin-1-yl)-5-(6-methoxy-pyridin-3-yl)-1-methyl-6-oxo-1,6-dihydro-pyrimidin-4-yl]-benzonitrile], the IC50 with THP-1 (AML) cells and in the test on Kasumi-1 was < 100 nM in each case. Regarding `CNC1CCN(c2nc(-c3ccc(C#N)c(F)c3)c(-c3ccc4nn(C)cc4c3)c(=O)n2C)CC1` [Example 65, 2-fluoro-4-[1-methyl-2-(4-methylamino-piperidin-1-yl)-5-(2-methyl-2H-indazol-5-yl)-6-oxo-1,6-dihydro-pyrimidin-4-yl]-benzonitrile], the IC50 in the test with THP-1 (AML) cells and in the test with Kasumi-1 was < 100 nM each time. For `Cc1ccc(-c2c(-c3ccc(C#N)c(F)c3)nc(N3CCC(N)CC3)n(C)c2=O)cn1` [Example 9], the IC50 with THP-1 (AML) cells and in the test with Kasumi-1 was < 100 nM each time. Take `Cn1c(N2CCC(N)CC2)nc(-c2ccc(C#N)cc2)c(-c2cnn(CC(F)(F)F)c2)c1=O` [Example 36, 4-{2-(4-amino-piperidin-1-yl)-1-methyl-6-oxo-5-[1-(2,2,2-trifluoro-ethyl)-1H-pyrazol-4-yl]-1,6-dihydro-pyrimidin-4-yl}-benzonitrile]: the IC50 in the test on THP-1 (AML) cells and with Kasumi-1 was < 100 nM throughout. As to `COc1ccc(-c2c(-c3ccc(C#N)c(F)c3)nc(N3CCC(N)CC3)n(C)c2=O)cc1` [Example 6, 4-[2-(4-amino-piperidin-1-yl)-5-(4-methoxy-phenyl)-1-methyl-6-oxo-1,6-dihydro-pyrimidin-4-yl]-2-fluoro-benzonitrile], the IC50 in the test on THP-1 (AML) cells and in the test on Kasumi-1 was < 100 nM each time. Regarding `Cc1ccc(-c2c(-c3ccc(C#N)cc3)nc(N3CCC(N)CC3)n(C)c2=O)cn1` [Example 4, 4-[2-(4-amino-piperidin-1-yl)-1-methyl-5-(6-methyl-pyridin-3-yl)-6-oxo-1,6-dihydro-pyrimidin-4-yl]-benzonitrile], the figures for the IC50 with THP-1 (AML) cells and in the test on Kasumi-1 were < 100 nM and 100 to 1000 nM, respectively.

Regarding `COc1ccc(-c2c(-c3ccc(C#N)c(F)c3)nc(N3CCC(N)CC3)n(C)c2=O)cn1` [Example 8, 4-[2-(4-amino-piperidin-1-yl)-5-(6-methoxy-pyridin-3-yl)-1-methyl-6-oxo-1,6-dihydro-pyrimidin-4-yl]-2-fluoro-benzonitrile], the IC50 with THP-1 (AML) cells and in the test with Kasumi-1 was < 100 nM each time. For `CN(C)c1ccc(-c2c(-c3ccc(C#N)cc3)nc(N3CCCNCC3)n(C)c2=O)cn1` [Example 67, 4-[2-[1,4]diazepan-1-yl-5-(6-dimethylamino-pyridin-3-yl)-1-methyl-6-oxo-1,6-dihydro-pyrimidin-4-yl]-benzonitrile], the IC50 with THP-1 (AML) cells was < 100 nM. Take `Cn1c(N2CCC(N)CC2)nc(-c2ccc(C#N)c(F)c2)cc1=O` [Example 108, 4-[2-(4-aminopiperidin-1-yl)-1-methyl-6-oxopyrimidin-4-yl]-2-fluorobenzonitrile]: the IC50 with THP-1 (AML) cells lay within 100 to 1000 nM. With `Cn1c(N2CCC(N)CC2)nc(-c2ccc(C#N)c(F)c2)c(-c2ccc(CCO)cc2)c1=O` [Example 99, 4-[2-(4-aminopiperidin-1-yl)-5-[4-(2-hydroxyethyl)phenyl]-1-methyl-6-oxopyrimidin-4-yl]-2-fluorobenzonitrile], the IC50 in the test on THP-1 (AML) cells was < 100 nM.

Turning to `CNc1ccc(-c2c(-c3ccc(C#N)c(F)c3)nc(N3CCC(N)CC3)n(C)c2=O)cc1` [Example 90, 4-[2-(4-aminopiperidin-1-yl)-1-methyl-5-[4-(methylamino)phenyl]-6-oxopyrimidin-4-yl]-2-fluorobenzonitrile], the IC50 in the test on THP-1 (AML) cells was < 100 nM. The same measure, in the same setting: the same measure for `Cn1c(N2CCC(N)CC2)nc(-c2ccc(C#N)c(F)c2)c(-c2ccc(F)cc2)c1=O` [Example 101, 4-[2-(4-aminopiperidin-1-yl)-5-(4-fluorophenyl)-1-methyl-6-oxopyrimidin-4-yl]-2-fluorobenzonitrile]: < 100 nM. As for `CNC(=O)c1ccc(-c2c(-c3ccc(C#N)c(F)c3)nc(N3CCC(N)CC3)n(C)c2=O)cn1` [Example 50, 5-[2-(4-amino-piperidin-1-yl)-4-(4-cyano-3-fluoro-phenyl)-1-methyl-6-oxo-1,6-dihydro-pyrimidin-5-yl]-pyridine-2-carboxylic acid methylamide], in the test on THP-1 (AML) cells, the concentration for half-maximal inhibition (IC50) is < 100 nM.

For `COc1ccc(-c2c(-c3ccc(C#N)c(F)c3)nc(NC[C@@H]3CCNC3)n(C)c2=O)cc1` [Example 52, 2-luoro-4-{5-(4-methoxy-phenyl)-1-methyl-6-oxo-2-[(3R)-(pyrrolidin-3-ylmethyl)-amino]-1,6-dihydro-pyrimidin-4-yl}-benzonitrile], the IC50 in the test with THP-1 (AML) cells lay in the range of 100 to 1000 nM.

For the compound `COCCOc1ccc(-c2c(-c3ccc(C#N)c(F)c3)nc(N3CCC(N)CC3)n(C)c2=O)cc1` [Example 98, 4-[2-(4-aminopiperidin-1-yl)-5-[4-(2-methoxyethoxy)phenyl]-1-methyl-6-oxopyrimidin-4-yl]-2-fluorobenzonitrile], the IC50 in the test with THP-1 (AML) cells is < 100 nM. For `CN(C)c1ccc(-c2c(-c3ccc(C#N)c(F)c3)nc(N3CCC(N)CC3)n(C)c2=O)cn1` [Example 57, 4-[2-(4-amino-piperidin-1-yl)-5-(6-dimethylamino-pyridin-3-yl)-1-methyl-6-oxo-1,6-dihydro-pyrimidin-4-yl]-2-fluoro-benzonitrile], the IC50 with THP-1 (AML) cells is < 100 nM.

Take `CNC(=O)c1ccc(-c2c(-c3ccc(C#N)cc3)nc(N3CCC(N)CC3)n(C)c2=O)cc1F` [Example 40, {4-[2-(4-aminopiperidyl)-6-(4-cyanophenyl)-3-methyl-4-oxo(3-hydropyrimidin-5-yl)]-2-fluorophenyl}-N-methylcarboxamide]: the IC50 in the test with THP-1 (AML) cells was 100 to 1000 nM.

Consider `CN(C)c1ncc(-c2c(-c3ccc(C#N)c(F)c3)nc(N3CCC(N(C)C)CC3)n(C)c2=O)cn1` [Example 81, 4-[2′-dimethylamino-2-(4-dimethylamino-piperidin-1-yl)-1-methyl-6-oxo-1,6-dihydro-[5,5′]bipyrimidinyl-4-yl]-2-fluoro-benzonitrile], for which, in the test on THP-1 (AML) cells, the IC50 is 100 to 1000 nM.

For the compound `Cn1c(N2CCC(N)CC2)nc(-c2ccc(C#N)c(F)c2)c(-c2ccc3c(c2)CNC3=O)c1=O` [Example 42, 4-[2-(4-amino-piperidin-1-yl)-1-methyl-6-oxo-5-(1-oxo-2,3-dihydro-1H-isoindol-5-yl)-1,6-dihydro-pyrimidin-4-yl]-2-fluoro-benzonitrile], the IC50 with THP-1 (AML) cells was in the range of 100 to 1000 nM.

Consider `CNCC1CN(c2nc(-c3ccc(C#N)c(F)c3)c(-c3ccc(OC)cc3)c(=O)n2C)C1` [Example 70, 2-fluoro-4-[5-(4-methoxy-phenyl)-1-methyl-2-(3-methylaminomethyl-azetidin-1-yl)-6-oxo-1,6-dihydro-pyrimidin-4-yl]-benzonitrile], for which the IC50 with THP-1 (AML) cells was < 100 nM. Consider `COc1ccc(-c2c(-c3ccc(C#N)c(F)c3)nc(N3CCC(N)CC3)[nH]c2=O)cc1` [Example 122, 4-[2-(4-amino-piperidin-1-yl)-5-(4-methoxy-phenyl)-6-oxo-1,6-dihydro-pyrimidin-4-yl]-2-fluoro-benzonitrile], for which the IC50 in the test on THP-1 (AML) cells is < 100 nM. On to `Cn1c(N2CCC(N)CC2)nc(-c2ccc(C#N)c(F)c2)c(C#CC2CCCC2)c1=O` [Example 14, 4-[2-(4-amino-piperidin-1-yl)-5-cyclopentylethynyl-1-methyl-6-oxo-1,6-dihydro-pyrimidin-4-yl]-2-fluoro-benzonitrile], for which the IC50 with THP-1 (AML) cells is < 100 nM. The same measure, in the same setting: the same measure for `COc1ccc(-c2c(-c3ccc(C#N)c(F)c3)nc(N3CCCNCC3)n(C)c2=O)cn1` [Example 61, 4-[2-[1,4]diazepan-1-yl-5-(6-methoxy-pyridin-3-yl)-1-methyl-6-oxo-1,6-dihydro-pyrimidin-4-yl]-2-fluoro-benzonitrile]: < 100 nM; for `Cn1c(N2CCC(N)CC2)nc(-c2ccc(C#N)c(F)c2)c(-c2ccc(N)cc2)c1=O` [Example 89, 4-[5-(4-aminophenyl)-2-(4-aminopiperidin-1-yl)-1-methyl-6-oxopyrimidin-4-yl]-2-fluorobenzonitrile]: < 100 nM. On to `CN(C)C1CCN(c2nc(-c3ccc(C#N)c(F)c3)c(-c3ccc4cn(C)nc4c3)c(=O)n2C)CC1` [Example 80, 4-[2-(4-dimethylamino-piperidin-1-yl)-1-methyl-5-(2-methyl-2H-indazol-6-yl)-6-oxo-1,6-dihydro-pyrimidin-4-yl]-2-fluoro-benzonitrile], for which the half-maximal inhibitory concentration (IC50) in the test on THP-1 (AML) cells was < 100 nM.

Turning to `Cn1c(N2CCC(N)CC2)nc(-c2ccc(C#N)cc2)c(-c2ccc(OCCO)cc2)c1=O` [Example 97, 4-[2-(4-aminopiperidin-1-yl)-5-[4-(2-hydroxyethoxy)phenyl]-1-methyl-6-oxopyrimidin-4-yl]benzonitrile], the IC50 with THP-1 (AML) cells is < 100 nM.

Consider `COc1ccc(-c2c(-c3ccc(Cl)c(F)c3)nc(N3CCC(N)CC3)n(C)c2=O)cc1` [Example 111, 2-(4-amino-piperidin-1-yl)-6-(4-chloro-3-fluoro-phenyl)-5-(4-methoxy-phenyl)-3-methyl-3H-pyrimidin-4-one], for which, in the test with THP-1 (AML) cells, the IC50 was in the range of 100 to 1000 nM. In the case of `Cn1c(N2CCC(N)CC2)nc(-c2ccc(C#N)c(F)c2)c(-c2ccc(C(F)(F)F)nc2)c1=O` [Example 23, 4-{2-(4-aminopiperidyl)-1-methyl-6-oxo-5-[6-(trifluoromethyl) (3-pyridyl)]hydropyrimidin-4-yl}-2-fluorobenzenecarbonitrile], in the test with THP-1 (AML) cells, the IC50 was < 100 nM. On to `CNC1CCN(c2nc(-c3ccc(C#N)c(F)c3)c(-c3ccc(N(C)C)nc3)c(=O)n2C)CC1` [Example 83, 4-[5-(6-dimethylamino-pyridin-3-yl)-1-methyl-2-(4-methylamino-piperidin-1-yl)-6-oxo-1,6-dihydro-pyrimidin-4-yl]-2-fluoro-benzonitrile], for which the 50% inhibitory concentration (IC50) in the test with THP-1 (AML) cells is < 100 nM.

For the origin of these results see patent US10023543B2 (CELGENE QUANTICEL RESEARCH, INC., priority 2014, dated 2018).
